# In US5041441A, “Method of chemotherapy using 1-phenyl-2-decanoylamino-3-morpholino-1-propanol” (The Regents of the University of Michigan, priority 1988, dated 1991):
# Marks after values point to notes of the source that are not given here.
# Key:
# [1] = system: Ehrlich ascites tumor cells (EATC); assay: Antitumor activity in mice inoculated i.p. with Ehrlich ascites tumor cells; type: in vivo; conditions: for 50-day cure (mice) / Solid Tumors at 50 days (mice): 8 mice; for Acute, initial toxicity observation: C18 (stearoyl) homolog, 0.15 mmol/kg on day 1; for Normal at 60 days / Solid tumors at 60 days: L-threo isomer; for Weight Change after 10 days: mouse, in vivo
# Procedure: Male mice of the ICR (Swiss Hsd) strain from Harlan--Sprague Dawley (Indianapolis, Ind.) were injected intraperitoneal with saline containing 2×10^6 Ehrlich ascites tumor cells (EATC) on day 0. […] Treatment began 24 hours later with intraperitoneal injections of saline or inhibitor, either as the acetate salt or as the hydrochloride salt. The inhibitor was dissolved in 40° C. saline and injected at 10 μl/g body weight. In the case of drugs that were difficult to dissolve, e.g. the hydrochlorides, a non-ionic, low toxicity detergent was included to emulsify the drug, making it suitable for injection. Two cages of mice were assigned to each control or experimental group and fed standard lab chow. In almost all cases, the mice were injected daily for a total of 10 doses.
# The 1-tailed Student t-test for unpaired samples was used for statistical analysis.
# The experimental procedure set forth above was again followed with homologs of PDMP made from fatty acids of 10 to 18 carbon atom length. The compounds were not resolved into D- and L-forms but the threo stereomers were used as the hydrochlorides. All samples were emulsified in Myrj 52 (15 mg/kg).
# [2] = molecular target: T1, glucosyltransferase (EATC enzyme) (Mus musculus, UniProt O88693); assay: Glucosyltransferase assay, microsomes from EATC; type: biochemical
# T1 construct: Microsomes from EATC (0.50 mg protein) required 20 μM PDMP to reduce the glucosyltransferase activity in half; endogenous in cells; host or cells: Ehrlich ascites tumor cells (EATC), microsomes
# T1 sequence (O88693 1-394): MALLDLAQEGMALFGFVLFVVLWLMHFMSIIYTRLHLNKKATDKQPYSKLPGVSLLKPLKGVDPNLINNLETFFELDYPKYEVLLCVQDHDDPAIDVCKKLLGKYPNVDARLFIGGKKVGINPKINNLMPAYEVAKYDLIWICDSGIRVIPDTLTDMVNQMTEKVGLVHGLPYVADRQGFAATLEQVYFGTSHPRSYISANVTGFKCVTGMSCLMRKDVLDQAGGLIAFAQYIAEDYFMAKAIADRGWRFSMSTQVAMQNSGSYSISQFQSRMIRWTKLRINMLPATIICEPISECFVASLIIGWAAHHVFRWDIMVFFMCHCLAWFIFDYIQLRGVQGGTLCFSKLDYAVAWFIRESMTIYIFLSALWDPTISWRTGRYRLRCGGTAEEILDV
# Procedure: Evidence that D-threo-PDMP acts to inhibit GlcCer biosynthesis was provided as follows from assay of glucosyltransferase. Microsomes as source of enzyme were prepared by highspeed centrifugation and stored at -70° C. before use. The incubations were at 37° C. for 30 minutes with microsomes, ATP, liposomal octanoyl sphingosine, UDP-[^3 H]glu, Mg^2+, and dithioerythritol. Microsomes from EATC (0.50 mg protein) required 20 μM PDMP to reduce the glucosyltransferase activity in half. The microsomes from normal liver (72 μg protein) required 5 μM D-threo-PDMP. While the EATC enzyme seems to be less sensitive to the inhibitor, the intraperitoneal concentration of inhibitor is initially very high.
# Ehrlich ascites cells [3] = assay: Growth of Ehrlich ascites cells in vivo (volume of packed cells); conditions: for Volume of packed cells / Volume of packed cells, % of controls: treatment begun 3 days after EATC inoculation, 5 injections, killed 1 day later, 100 mg/kg
# Procedure: A suspension of GlcCer was injected into one group of 10 mice inoculated 1 day earlier with EATC as before. Injectable suspensions of GlcCer and galactosylceramide (GalCer) were prepared by mechanical grinding in saline (10 mg/ml) and injected at a dosage of 100 mg/kg. In one experiment, the mice were killed 1 day after the last of eight daily injections and the ascites cells were flushed out of the abdomen with buffered saline and washed.
# Treatments were begun 3 days after EATC inoculation. Only 5 injections were given and the mice were killed 1 day later.
# Ehrlich ascites cells [4] = conditions: mice bearing Ehrlich ascites carcinoma cells, injection of glucosylceramide (background); cited from earlier work
# [5] = DL-threo hydrochloride in Myrj 52 emulsion, 0.3 mmol/kg, ten daily injections
# [6] = DL-threo hydrochloride in Myrj 52 emulsion, C16 0.15 mmol/kg, six injections
# [7] = DL-threo hydrochloride in Myrj 52 emulsion, C18 0.15 mmol/kg on day 1 and 0.075 mmol/kg the remaining 9 days
compound,measurement,setting,value
"CCCCCCCCCC(=O)N[C@H](CN1CCOCC1)[C@H](O)c1ccccc1 (relative stereo) [compound 10, 1-Phenyl-2-Decanoylamino-3-Morpholino-1-Propanol]",50-day cure (mice),[1]; [5],5
same,Solid Tumors at 50 days (mice),[1]; [5],1
same,Mice that developed small solid tumors that were later resorbed,"[1]; decanoyl group, 0.3 mmol/kg in Myrj emulsion",two
same,Long-term cure rate,"[1]; dosage of 128 mg/kg, Myrj emulsion",50%
CCCCCCCCCCCC(=O)N[C@H](CN1CCOCC1)[C@H](O)c1ccccc1 (relative stereo) [compound 12],Body Weight Increase at the 10-day point,[1]; [5],-0.1 g
same,50-day cure (mice),[1]; [5],2
same,Solid Tumors at 50 days (mice),[1]; [5],2
CCCCCCCCCCCCCC(=O)N[C@H](CN1CCOCC1)[C@H](O)c1ccccc1 (relative stereo) [compound 14],Body Weight Increase at the 10-day point,[1]; [5],0.1 g
same,50-day cure (mice),[1]; [5],1
same,Solid Tumors at 50 days (mice),[1]; [5],4
CCCCCCCCCCCCCCCC(=O)N[C@H](CN1CCOCC1)[C@H](O)c1ccccc1 (relative stereo) [compound 16],Body Weight Increase at the 10-day point,[1]; [6],-1.1 g
same,Survival after 10 days,[1]; [6],5/8
same,50-day cure (mice),[1]; [6],3
same,Solid Tumors at 50 days (mice),[1]; [6],1
same,Toxicity observation,"[1]; palmitoyl homolog, daily injections in Myrj 52",too toxic to be used more than six times
CCCCCCCCCCCCCCCCCC(=O)N[C@H](CN1CCOCC1)[C@H](O)c1ccccc1 (relative stereo) [compound 18],"Acute, initial toxicity observation",[1],high initial weight loss
same,"Acute, initial toxicity observation",[1]; listed as C18 homolog,"absence of an acute, initial toxicity reaction"
same,Body Weight Increase at the 10-day point,[1]; [7],2.5 g
same,50-day cure (mice),[1]; [7],6
same,Solid Tumors at 50 days (mice),[1]; [7],0
"CCCCCCCCCC(=O)N[C@@H](CN1CCOCC1)[C@@H](O)c1ccccc1 [L-threo-PDMP, 1-Phenyl-2-Decanoylamino-3-Morpholino-1-Propanol]",Effectiveness in curing the tumors compared with the D-enantiomer,"[1]; 60-day observation period, 75-150 mg/kg",more effective in curing the tumors than the D-enantiomer
same,Losses of animals during the initial 10 days of treatment,[1]; 75-150 mg/kg,no losses of animals
same,Ascites fluid in treated mice,"[1]; 75-150 mg/kg, 10 days",At no time was ascites fluid visible
same,Normal at 60 days,"[1]; 75 mg/kg, 10 days",4 # of mice
same,Solid tumors at 60 days,"[1]; 75 mg/kg, 10 days",2 # of mice
same,Normal at 60 days,"[1]; 100 mg/kg, 10 days",4 # of mice
same,Solid tumors at 60 days,"[1]; 100 mg/kg, 10 days",3 # of mice
same,Normal at 60 days,"[1]; 125 mg/kg, 10 days",2 # of mice
same,Solid tumors at 60 days,"[1]; 125 mg/kg, 10 days",3 # of mice
same,Normal at 60 days,"[1]; 150 mg/kg, 10 days",5 # of mice
same,Solid tumors at 60 days,"[1]; 150 mg/kg, 10 days",3 # of mice
same,Mice in which disappearance of solid tumors was observed,[1]; at the higher dosages,two
same,Acute toxicity reactions of the mice,[1]; compared with the D-isomer,distinctly smaller than with the D-isomer
same,Weight Change after 10 days,[1]; 75 mg/kg,3.2 g
same,Weight Change after 10 days,[1]; 100 mg/kg,1.9 g
same,Weight Change after 10 days,[1]; 125 mg/kg,0.8 g
same,Weight Change after 10 days,[1]; 150 mg/kg,-0.2 g
same,Inhibition of ceramide glucosyltransferase,[2]; general statement,ineffective
same,Inhibition of the EATC enzyme,[2]; microsomes from EATC,did not inhibit
galactosylceramide [GalCer],Stimulation of EATC growth,"Ehrlich ascites cells [3]; Experiment 7, 100 mg/kg",no stimulation of EATC growth
same,Volume of packed cells,Ehrlich ascites cells [3],2.29 ± 1.21 ml/mouse
same,"Volume of packed cells, % of controls",Ehrlich ascites cells [3],84 % of controls
glucosylceramide [GlcCer],"Packed, centrifuged ascites cells (mean value per mouse)","Ehrlich ascites cells [3]; EATC mice, eight daily injections from day 1, killed 1 day after the last, GlcCer 100 mg/kg, saline controls 3.07 ml",4.68 mL
same,Increase of packed cells over saline-injected controls,"Ehrlich ascites cells [3]; EATC mice, eight daily injections, GlcCer 100 mg/kg, p less than 0.05",52%
same,Volume of packed cells,Ehrlich ascites cells [3],4.13 ± 0.63 ml/mouse
same,"Volume of packed cells, % of controls",Ehrlich ascites cells [3],152 % of controls
same,Increase in the number of cancer cells,Ehrlich ascites cells [4],greater than 50%
